Assays:
STAT1 = assay: pSTAT evaluation in primary monocytes, IFNa stimulation; assay type: cell-based, human; details: pre-treated 3 hours, in response to IFNa (30 min)
MDSC in peripheral blood = assay: Peripheral blood cell frequencies in advanced melanoma patients on high dose esomeprazole; assay type: in vivo; details: esomeprazole 120mg/day for 3 days
Method: (§1) We also tested the effect of PPI in advanced melanoma patients receiving high dose esomeprazole (120mg/day for 3 days) in the context of a clinical trial testing the ability of PPI pretreatment to sensitized patients to chemotherapy (CISPLATIN).

B16-OVA cells [1] = assay: Functional avidity of tumor CD8+ T cells in the active immunotherapy model (naïve OTI transfer, DC-OVA257-264 vaccine); assay type: in vivo, mice; details: PPI i.p. at day 11, sacrificed 1 day later; vs PBS
[2] = tested on: Primary human monocytes from HD PBMC; assay type: cell-based
B16-OVA melanoma = assay: Flow cytometry of tumor-infiltrating leukocytes after DC-OVA257-264 vaccination; assay type: in vivo, mice; details: 7-day-old melanomas, DC-OVA257-264 vaccine, PPI i.p. on day 3 post vaccine, analysed after 24h; vs PBS
[3] = tested on: transgenic adenocarcinoma of the mouse prostate (TRAMP); assay: IFN-γ production of prostate-infiltrating tumor-specific T cells after HSCT, DLI and DC-Tag-IV vaccination; assay type: in vivo, mice; details: PPI i.p. 3 days after DC-Tag-IV vaccine, killed after 24 h; vs PBS
B16-OVA melanoma cells = assay: Tumor extracellular pH (pHe) by magnetic resonance spectroscopy (MRS); assay type: in vivo, mice; details: esomeprazole 12.5 mg/kg i.p.; reached within 60 min; baseline approximately 6.5
STAT3 [4] = assay: pSTAT evaluation in primary monocytes, IL6 stimulation; assay type: cell-based, human; details: pre-treated 3 hours, in response to IL6 (30 min)
B16-OVA = assay: Survival with adoptive immunotherapy (activated OTI cells) combined with PPI; assay type: in vivo, mice
circulating monocytes = assay: Ex-vivo cytokine secretion by circulating monocytes of treated patients; assay type: in vivo, advanced melanoma patients; details: after 3 days of high dose PPI treatment
Method: as §1

STAT3 [5] = assay: STAT3 phosphorylation state in circulating monocytes of treated patients; assay type: in vivo, advanced melanoma patients; details: with respect to cells obtained prior to PPI administration
Method: as §1

[6] = Dosing experiments for tolerated dose; set-up: species or system mice; details: mouse, in vivo; dosing experiments ranging from 1.25-600 mg/kg; read-out: highest tolerated dose
B16 melanoma = assay: Survival of mice bearing B16 melanoma not expressing OVA (OTI control; TBI plus TRP-2-sensitized splenocytes); assay type: in vivo
STAT6 [7] = assay: STAT6 phosphorylation state in circulating monocytes of treated patients; assay type: in vivo, advanced melanoma patients; details: with respect to cells obtained prior to PPI administration
Method: as §1

[8] = tested on: allogenic HLA-matched melanoma cells; details: PPI + chemotherapy (CISPLATIN) vs chemotherapy alone
Method: as §1

B16-OVA cells [9] = assay: TIL effector function (intracellular IFNγ) after infusion of activated CFSE-labelled OTI cells; assay type: in vivo, mice
STAT6 [10] = assay: pSTAT evaluation in primary monocytes, IL13 stimulation; assay type: cell-based, human; details: pre-treated 3 hours, in response to IL13 (30 min)

SMILES: COc1ccc2nc([S@@+]([O-])Cc3ncc(C)c(OC)c3C)[nH]c2c1 [esomeprazole]
- STAT1 phosphorylation (STAT1): inhibit
- frequency of MDSC in peripheral blood (MDSC in peripheral blood): significantly and rapidly decreases
- total CD14+, CD3+, CD4+, CD19+ cells or granulocytes in peripheral blood (MDSC in peripheral blood): no change
- increase in ability of magnetic bead sorted CD8+ T cells to recognize OVA257-264 (B16-OVA cells [1]): by at least one log
- release of cytokines/chemokines such as IL-8, GRO and MCD ([2]; PPI pretreatment, data not shown): did not affect
- cytokine/chemokine secretion ([2]; esomeprazole 100 µg/ml pre-treatment 3 hours, then mel-EXO 100 µg for 24 hours): significantly reduced
- inflammatory infiltrate of the tumor mass (B16-OVA melanoma): did not substantially modify
- population of TIL specifically reacting against the tumor antigen (CD44+IFN-γ+ within CD8+) [3]: markedly increased
- tumor pHe (B16-OVA melanoma cells): 7.0
- STAT3 phosphorylation (STAT3 [4]): inhibit
- animal survival (B16-OVA; 8-day melanoma, combined treatment with PPI (12.5 mg/kg) and OTI cells, relative to PBS alone): doubling in the overall survival rate
- tumor growth inhibition (B16-OVA; PPI administered before OTI adoptive transfer): equal tumor growth inhibition
- ex-vivo secretion of VEGF-A (circulating monocytes; before treatment 120±100): 104±58
- ex-vivo secretion of TGFβ (circulating monocytes; before treatment 1809±900): 1502 ± 755 pg/mL
- reduction in STAT3 phosphorylation state (STAT3 [5]): 20%
- MTD [6]: 12.5 mg/kg
- survival of mice with B16 melanomas not expressing OVA (B16 melanoma; OTI cells and PPI treatment): did not impact
- Survival (B16 melanoma; TBI 600 Rad, TRP-2-sensitized splenocytes plus PPI vs single adoptive transfer of splenocytes only): significantly prolonged
- reduction in STAT6 phosphorylation state (STAT6 [7]): 15%
- tumor immunity in peripheral blood [8]: significant increase
- frequency of CFSE+ OT-1 cells (B16-OVA cells [9]; 12-day-old melanoma, PPI 24h after OTI infusion, sacrificed 1 day later, vs PBS): comparable
- percentage of CD44+CD8+IFNY+ T cells in tumor-derived CFSE+ T cells (B16-OVA cells [9]; 12-day-old melanoma, PPI 24h after OTI infusion, vs PBS): significantly enhanced
- IFNY production by CD8+CD44+ T cells isolated from the spleen, lung and kidney (B16-OVA cells [9]; CFSE+ and CFSE- subsets, PPI- vs PBS-treated groups): did not differ
- IFNY production in CFSE- TILs (B16-OVA cells [9]; endogenous T cells, PPI-treated vs PBS-treated mice): higher IFNY production
- STAT6 phosphorylation (STAT6 [10]): inhibit
